Activity calls are given as the source filed them. No cut-off for these calls is given here.
Legend:
[1] = Antiproliferative activity against human HUVEC cells assessed as inhibition of cell growth measured after 72 hrs by MTT assay; type: toxicity, cell-based
HCC827 [2] = assay: Antiproliferative activity against human HCC827 cells assessed as inhibition of cell growth measured after 72 hrs by MTT assay; type: functional, cell-based; conditions: HCC827, 72 h
[3] = Antiproliferative activity against human Osimertinib-resistant HCC827 cell assessed as inhibition of cell growth measured after 72 hrs by MTT assay; type: functional, cell-based
MDA-MB-231 = assay: Antiproliferative activity against human MDA-MB-231 cells assessed as inhibition of cell growth measured after 72 hrs by MTT assay; type: functional, cell-based; conditions: MDA-MB-231, 72 h
[4] = Drug accumulation in mitochondria of human HCC827 cells at 10 uM incubated for 10 mins in presence of CCCP by RP-HPLC-UV analysis; type: ADME; conditions: hcc827, 10 min
Mitochondrial membrane = assay: Induction of mitochondrial membrane depolarization in human HCC827 cells assessed as increase green fluorescence intensity at 0.125 to 0.5 uM incubated for 4 hrs by rhodamine 123 staining based confocal microscopy analysis; type: cell membranes; conditions: dose 0.125-0.5 µM
BEAS-2B [5] = assay: Induction of mitochondrial dysfunction in human BEAS-2B cells assessed as reduction in glycolytic reserve at 0.125 to 5 uM incubated for 4 hrs by Seahorse XF96 extracellular flux analyzer; type: functional, cell-based; conditions: dose 0.125-5 µM
BEAS-2B [6] = assay: Induction of mitochondrial dysfunction in human BEAS-2B cells assessed as decrease in ATP production at 0.125 to 5 uM incubated for 4 hrs by Seahorse XF96 extracellular flux analyzer; type: functional, cell-based; conditions: dose 0.125-5 µM
HCC827 [7] = assay: Downregulation of VDAC1 expression level in human HCC827 cells incubated for 24 hrs by Western blot analysis; type: functional, cell-based; conditions: dose 0.25-5 µM
HCC827 [8] = assay: Upregulation of parkin phosphorylation level in human HCC827 cells at 0.25 to 0.5 uM measured after 24 hrs; type: functional, cell-based; conditions: dose 0.25-0.5 µM
HCC827 [9] = assay: Induction of cell cycle arrest in human HCC827 cells assessed as accumulation of cells at G1 phase at 0.4 uM incubated for 24 hrs by PI staining based flow cytometry analysis (reference value: 66.44%); type: functional
HCC827 [10] = assay: Induction of ROS generation in human HCC827 cells assessed as green fluorescence intensity at 1 uM incubated for 24 hrs by DCFH-DA staining based by absorbance based laser confocal microscopic analysis; type: functional, cell-based
HCC827 [11] = assay: Induction of apoptosis in human HCC827 cells assessed as late apoptotic cells at 0.25 uM measured after 48 hrs by annexin V and PI staining based flow cytometry analysis (reference value: 1.29%); type: functional
HCC827 [12] = assay: Induction of apoptosis in human HCC827 cells assessed as late apoptotic cells at 1 uM measured after 48 hrs by annexin V and PI staining based flow cytometry analysis (reference value: 1.29%); type: functional
HCC827 [13] = assay: Induction of apoptosis in human HCC827 cells assessed as necrotic cells at 0.25 uM measured after 48 hrs by annexin V and PI staining based flow cytometry analysis (reference value: 1.18%); type: functional
HCC827 [14] = assay: Induction of apoptosis in human HCC827 cells assessed as necrotic cells at 1 uM measured after 48 hrs by annexin V and PI staining based flow cytometry analysis (reference value: 1.18%); type: functional
HCC827 [15] = assay: Induction of apoptosis in human HCC827 cells assessed as early apoptotic cells at 1 uM measured after 48 hrs by annexin V and PI staining based flow cytometry analysis (reference value: 1.80%); type: functional
HCC827 [16] = assay: Antiproliferative activity against human HCC827 cells assessed as cell viability at 1 uM measured after 48 hrs in presence of ferrostatin-1 by MTT assay relative to control; type: functional; conditions: read-out: Activity
HCC827 [17] = assay: Effect on NDUFB8 expression in human HCC827 cells at 0.25 to 0.5 uM; type: functional, cell-based; conditions: dose 0.25-0.5 µM
HCC827 [18] = assay: Effect on NDUFB8 expression in human HCC827 cells at 0.25 to 0.5 uM incubated for 24 hrs by Western blot analysis; type: functional, cell-based; conditions: dose 0.25-0.5 µM
HCC827 [19] = assay: Downregulation of SDHB expression in human HCC827 cells incubated for 24 hrs by Western blot analysis; type: functional, cell-based; conditions: dose 0.25-0.5 µM
HCC827 [20] = assay: Downregulation of SDHB expression in human HCC827 cells at 0.25 uM by Western blot analysis; type: functional, cell-based; conditions: time <= 24.0 hrs
[21] = target: T1, Heat shock protein 75 kDa, mitochondrial (Homo sapiens) (UniProt Q12931); assay: Inhibition of human TRAP1 assessed as fold increase in ATPase activity at 20 uM
T1 sequence (whole entry): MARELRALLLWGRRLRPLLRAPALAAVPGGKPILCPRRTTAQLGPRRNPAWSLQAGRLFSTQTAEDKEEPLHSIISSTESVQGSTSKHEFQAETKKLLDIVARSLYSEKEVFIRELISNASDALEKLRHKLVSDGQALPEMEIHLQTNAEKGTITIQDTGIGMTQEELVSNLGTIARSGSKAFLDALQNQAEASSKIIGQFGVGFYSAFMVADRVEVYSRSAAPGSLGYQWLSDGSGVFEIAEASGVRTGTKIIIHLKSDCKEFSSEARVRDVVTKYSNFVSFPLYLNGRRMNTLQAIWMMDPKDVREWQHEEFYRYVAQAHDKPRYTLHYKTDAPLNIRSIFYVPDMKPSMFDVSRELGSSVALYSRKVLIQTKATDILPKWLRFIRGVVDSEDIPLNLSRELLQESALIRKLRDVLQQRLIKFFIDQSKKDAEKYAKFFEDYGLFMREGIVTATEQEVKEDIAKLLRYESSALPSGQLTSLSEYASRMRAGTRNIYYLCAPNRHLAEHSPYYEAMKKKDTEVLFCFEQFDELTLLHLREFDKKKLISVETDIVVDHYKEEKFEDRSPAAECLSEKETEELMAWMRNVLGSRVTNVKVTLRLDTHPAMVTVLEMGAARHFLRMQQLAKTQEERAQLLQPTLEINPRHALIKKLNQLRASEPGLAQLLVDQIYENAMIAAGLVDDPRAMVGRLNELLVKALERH

HCC827 [22] = assay: Downregulation of […] protein level in human HCC827 cells at 0.25 to 0.5 uM measured after 12 hrs; type: functional, cell-based; conditions: dose 0.25-0.5 µM
[23] = Toxicity in female BALB/c mouse assessed as histopathological changes in liver at 30 mg/kg, ip measured for 7 days by H and E staining based analysis; type: organism-based; conditions: in vivo, 168 h, time 7 day
[24] = Toxicity in female BALB/c mouse assessed as histopathological changes in spleen at 30 mg/kg, ip measured for 7 days by H and E staining based analysis; type: organism-based; conditions: in vivo, 168 h, time 7 day
[25] = Toxicity in female BALB/c mouse assessed as histopathological changes in lung at 30 mg/kg, ip measured for 7 days by H and E staining based analysis; type: organism-based; conditions: in vivo, 168 h, time 7 day
HCC827 [26] = assay: Antitumor activity against human HCC827 cells xenografted in female nude mouse model assessed as suppression of tumor growth at 5 to 10 mg/kg, ip measured every two days for 14 days; type: functional, organism-based; conditions: dose 5-10 mg/kg, time 14.0 day
HeLa = assay: Induction of mitophagy in human HeLa cells assessed as colocalization of mitochondria and lysosomes at 0.5 uM by lysotracker red staining based confocal microscopy analysis; type: functional, cell-based

## Cc1ccc([P+](CCCCCCCCCCO)(c2ccc(C)cc2)c2ccc(C)cc2)cc1.[Br-]
[1]
  IC50 at 72 h: 1800 nM
HCC827 [2]
  IC50: 70 nM
[3]
  IC50: 230 nM
MDA-MB-231
  IC50: 100 nM
[4]
  Drug uptake: Not_active
Mitochondrial membrane
  Activity: inactive
BEAS-2B [5]
  Activity: Minimal_effect
BEAS-2B [6]
  Activity: Minimal_effect
HCC827 [7]
  Activity: Dose-dependent-effect
HCC827 [8]
  Activity: Active
HCC827 [9]
  Activity: 85.66%
HCC827 [10]
  Activity: Active
HCC827 [11]
  Activity: 3.3%
HCC827 [12]
  Activity: 9.96%
HCC827 [13]
  Activity: 2.91%
HCC827 [14]
  Activity: 2.19%
HCC827 [15]
  Activity: 5.33%
HCC827 [16]
  viability at 1 µM: 51.4%
HCC827 [17]
  Activity: Active
HCC827 [18]
  Activity: Active
HCC827 [19]
  Activity: Active
HCC827 [20]
  Activity: Time-dependent-effect
[21]
  fold change (FC): 2
HCC827 [22]
  Activity: Active
[23]
  Activity: Non-toxic
[24]
  Activity: Non-toxic
[25]
  Activity: Non-toxic
HCC827 [26]
  Activity: Active
HeLa
  Activity: Active

Reference: ChEMBL document CHEMBL6182916, “Unexpected Discovery of a Novel Triphenylphosphonium Alkylalcohol That Triggers Cancer Cell Death via Mitophagy and Ferroptosis” (J Med Chem, 2025)
